The values below come from patent publication US9493478B2, “Fused ring compound containing furan or salt thereof and pharmaceutical composition comprising same” (YUHAN CORPORATION, priority 2012, dated 2016).

Structures are written as SMILES.

Holding throughout (type): biochemical
One test has as its target PI3Kγ (p120γ)(h) (Homo sapiens, UniProt P48736). The test can be described thus: Assay for phosphatidylinositol 3-kinase gamma (PI3Kγ) activity, PI3K-HTRF kit. To be noted: TR-FRET; enzyme 1.45 μg/ml, 10 μM PIP2, 10 μM ATP. How it is done: (§1) The compounds of the present invention were assayed for the activity of phosphatidylinositol 3-kinase gamma (PI3Kγ) by using a PI3K enzyme-homogenous time resolved fluorescence (PI3K-HTRF) kit, which is available from Upstate (Millipore Co, Billerica, Mass., USA).
(§2) Three kinds of buffer solutions including a phosphorylation reaction solution (a reaction buffer containing 40 mM MgCl2 which is available from Upstate was diluted 4 times and added with 5 mM DTT), a stop solution (STOP A and B solutions which are available from Upstate were mixed at a ratio of 3:1) and a fluorescence detection solution (Detection solutions A, B and C which are available from Upstate were mixed at a ratio of 1:1:18) were prepared. 1 mM of PIP2 substrate (phosphatidylinositol 4,5 biphosphate; Upstate), PI3Kγ (#14-558; Upstate) enzyme and 10 mM ATP (Sigma Aldrich Co., St. Louis, Mo., USA) were prepared. Each of PI3Kγ, 1 mM PIP2 and 10 mM ATP was diluted to 2.9 μg/ml (final reaction concentration: 1.45 μg/ml), 20 μM (final reaction concentration: 10 μM) and 40 μM (final reaction concentration: 10 μM), respectively. The buffer solution used for dilution and preparation process was the phosphorylation reaction solution. The stop solution was used for the termination of phosphorylation reaction, and the fluorescence detection solution was used for the detection of time-resolved fluorescence signals.
(§3) Each test sample was transferred to a 384 well low flange white flat bottom microplate (#3572, Corning Life Sciences, Lowell, Mass., USA) by using a multi 8-channel (Pipetman Neo multi 8×20, Gilson, Middleton, Wis., USA) to make a final phosphorylation reaction volume of 20 μl per each well. For the negative control, 5 μl of 14.4% DMSO and 10 μl of PIP2 substration solution were used, and 5 μl of 14.4% DMSO and 10 μl of PIP2/PI3Kγ mixed solution were used as the positive control. For the test group, 5 μl of a solution prepared by dissolving the compound obtained in Example in DMSO and 10 μl of PIP2/PI3Kγ mixed solution were used. Before the initiation of the phosphorylation reaction, sample compounds were pretreated with the enzyme for approximately 10 minutes, and then the phosphorylation reaction was induced by adding 5 μl of ATP. Since each of the test compound and ATP takes up 25% of the total volume, and PIP2 and PI3Kγ take up 50% of the total volume during the reaction, each solution was concentrated 4 and 2 times, respectively, before mixing the solutions. Subsequently, the test sample was gently shook for 3 minutes and subjected to a phosphorylation reaction for 90 minutes at room temperature, which was then added with 5 μl of the stop solution to terminate the phosphorylation reaction. In order to induce a time-resolved fluorescence reaction, 5 μl of the fluorescence detection solution was added to the sample. The fluorescence detection solution contains biotin-phosphatidylinositol 3,4,5-triphosphate (PIP3), streptavidin-labeled Allopycocyanin (APC) and europium-labeled Pleckstrin homology domain (the PIP3 binds to PH domain), and the time-resolved fluorescence reaction is induced by a series of reaction of PH domain and PIP3, and biotin and streptavidin. The sample was left to stand for 6 hours at room temperature, and the time-resolved fluorescence resonance energy transfer (TR-FRET) rate was measured (emission wavelength: 665 nm, 620 nm, excitation wavelength: 340 nm) by using a Flexstation3 Micro plate reader (Molecular Devices, USA). TR-FRET Rate and TR-Inhibition Rate were calculated based on Equations 1 and 2 below, and the results are expressed in IC50, which is the concentration of a compound that inhibits 50% of PI3Kγ activity in vitro. TR-FRET Rate=(665 nm emission wavelength/620 nm emission wavelength)×10000 <Equation 1> TR-FRET Inhibition Rate=[(TR-FRET Rate of Sample−TR-FRET Rate of Negative Control)/(TR-FRET Rate of Positive Control−TR-FRET Rate of Negative Control)]×100 <Equation 2>

The target in a further test is PI3Kα (p110α/p85α)(h) (Homo sapiens, UniProt P42336). The test can be described thus: Assay for phosphatidylinositol 3-kinase alpha (PI3Kα) activity, PI3K-HTRF kit. To be noted: TR-FRET; enzyme 0.3625 μg/ml, 10 μM PIP2, 10 μM ATP. As for the experimental part:
[The source words this procedure for another target and says it was used here with some conditions changed.] as §1, §2, §3

The next test deals with PI3K β (p110β/p85α)(h) (Homo sapiens, UniProt P42338). The test can be described thus: Assay for phosphatidylinositol 3-kinase beta (PI3Kβ) activity, PI3K-HTRF kit. To be noted: TR-FRET; enzyme 0.725 μg/ml, 10 μM PIP2, 10 μM ATP. How it is done: [The source words this procedure for another target and says it was used here with some conditions changed.] as §1, §2
as §3, with “2> […]” for “2>”

The target of another test is PI3Kδ (p110δ/p85α)(h) (Homo sapiens, UniProt O00329). The test can be described thus: Assay for phosphatidylinositol 3-kinase delta (PI3Kδ) activity, PI3K-HTRF kit. To be noted: TR-FRET; enzyme 0.725 μg/ml, 10 μM PIP2, 10 μM ATP. How it is done: [The source words this procedure for another target and says it was used here with some conditions changed.] as §1, §2
as §3, with “2> […]” for “2>”

Chain of PI3Kα (p110α/p85α)(h) (P42336 whole entry): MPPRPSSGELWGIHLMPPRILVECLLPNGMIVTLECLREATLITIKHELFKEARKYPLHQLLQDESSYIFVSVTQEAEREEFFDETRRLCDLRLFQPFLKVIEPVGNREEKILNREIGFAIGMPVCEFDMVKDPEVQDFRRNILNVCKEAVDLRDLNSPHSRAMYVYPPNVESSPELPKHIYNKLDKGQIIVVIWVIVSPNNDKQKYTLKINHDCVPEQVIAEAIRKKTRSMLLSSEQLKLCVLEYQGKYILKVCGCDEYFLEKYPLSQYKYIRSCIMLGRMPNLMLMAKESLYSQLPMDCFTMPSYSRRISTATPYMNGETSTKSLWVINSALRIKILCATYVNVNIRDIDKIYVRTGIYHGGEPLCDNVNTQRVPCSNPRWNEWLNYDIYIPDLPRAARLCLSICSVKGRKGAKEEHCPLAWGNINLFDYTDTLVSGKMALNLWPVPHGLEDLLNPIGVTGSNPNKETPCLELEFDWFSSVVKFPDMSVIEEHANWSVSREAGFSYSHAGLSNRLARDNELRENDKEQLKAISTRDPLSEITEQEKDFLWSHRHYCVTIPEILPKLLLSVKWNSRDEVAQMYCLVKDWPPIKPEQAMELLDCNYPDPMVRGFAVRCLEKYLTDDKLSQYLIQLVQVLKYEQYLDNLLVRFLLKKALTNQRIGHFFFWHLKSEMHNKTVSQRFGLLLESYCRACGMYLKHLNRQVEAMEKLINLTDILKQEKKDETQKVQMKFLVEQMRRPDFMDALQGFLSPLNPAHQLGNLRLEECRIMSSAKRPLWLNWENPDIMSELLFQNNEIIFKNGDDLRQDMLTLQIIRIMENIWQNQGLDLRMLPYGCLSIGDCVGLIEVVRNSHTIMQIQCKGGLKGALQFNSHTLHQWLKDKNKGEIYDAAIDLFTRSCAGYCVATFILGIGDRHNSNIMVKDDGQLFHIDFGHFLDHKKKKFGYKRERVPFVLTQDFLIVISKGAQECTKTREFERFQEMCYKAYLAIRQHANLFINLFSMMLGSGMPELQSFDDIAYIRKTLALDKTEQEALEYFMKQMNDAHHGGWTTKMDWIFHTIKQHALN
Chain of PI3Kα (p110α/p85α)(h) (P27986 whole entry partner): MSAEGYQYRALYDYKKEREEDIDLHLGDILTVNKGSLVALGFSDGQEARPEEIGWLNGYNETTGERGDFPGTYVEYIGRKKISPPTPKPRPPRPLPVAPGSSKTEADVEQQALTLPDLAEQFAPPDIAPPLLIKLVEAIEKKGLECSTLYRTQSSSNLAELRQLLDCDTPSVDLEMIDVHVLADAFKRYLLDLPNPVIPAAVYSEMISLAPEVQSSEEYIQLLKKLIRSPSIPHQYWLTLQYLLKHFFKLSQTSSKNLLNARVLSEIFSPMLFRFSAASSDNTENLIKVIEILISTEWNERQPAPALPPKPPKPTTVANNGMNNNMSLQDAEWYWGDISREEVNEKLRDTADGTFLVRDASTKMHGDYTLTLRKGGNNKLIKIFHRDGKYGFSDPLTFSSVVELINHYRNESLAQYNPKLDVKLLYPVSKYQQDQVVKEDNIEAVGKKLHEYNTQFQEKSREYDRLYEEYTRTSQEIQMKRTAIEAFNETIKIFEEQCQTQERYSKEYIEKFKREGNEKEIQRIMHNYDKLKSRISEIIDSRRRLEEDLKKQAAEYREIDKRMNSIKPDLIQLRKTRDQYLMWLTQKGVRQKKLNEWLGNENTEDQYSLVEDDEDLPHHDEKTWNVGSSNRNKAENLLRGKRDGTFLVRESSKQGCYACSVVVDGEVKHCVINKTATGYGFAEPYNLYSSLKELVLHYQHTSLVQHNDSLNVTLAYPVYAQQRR
Chain of PI3K β (p110β/p85α)(h) (P42338 whole entry): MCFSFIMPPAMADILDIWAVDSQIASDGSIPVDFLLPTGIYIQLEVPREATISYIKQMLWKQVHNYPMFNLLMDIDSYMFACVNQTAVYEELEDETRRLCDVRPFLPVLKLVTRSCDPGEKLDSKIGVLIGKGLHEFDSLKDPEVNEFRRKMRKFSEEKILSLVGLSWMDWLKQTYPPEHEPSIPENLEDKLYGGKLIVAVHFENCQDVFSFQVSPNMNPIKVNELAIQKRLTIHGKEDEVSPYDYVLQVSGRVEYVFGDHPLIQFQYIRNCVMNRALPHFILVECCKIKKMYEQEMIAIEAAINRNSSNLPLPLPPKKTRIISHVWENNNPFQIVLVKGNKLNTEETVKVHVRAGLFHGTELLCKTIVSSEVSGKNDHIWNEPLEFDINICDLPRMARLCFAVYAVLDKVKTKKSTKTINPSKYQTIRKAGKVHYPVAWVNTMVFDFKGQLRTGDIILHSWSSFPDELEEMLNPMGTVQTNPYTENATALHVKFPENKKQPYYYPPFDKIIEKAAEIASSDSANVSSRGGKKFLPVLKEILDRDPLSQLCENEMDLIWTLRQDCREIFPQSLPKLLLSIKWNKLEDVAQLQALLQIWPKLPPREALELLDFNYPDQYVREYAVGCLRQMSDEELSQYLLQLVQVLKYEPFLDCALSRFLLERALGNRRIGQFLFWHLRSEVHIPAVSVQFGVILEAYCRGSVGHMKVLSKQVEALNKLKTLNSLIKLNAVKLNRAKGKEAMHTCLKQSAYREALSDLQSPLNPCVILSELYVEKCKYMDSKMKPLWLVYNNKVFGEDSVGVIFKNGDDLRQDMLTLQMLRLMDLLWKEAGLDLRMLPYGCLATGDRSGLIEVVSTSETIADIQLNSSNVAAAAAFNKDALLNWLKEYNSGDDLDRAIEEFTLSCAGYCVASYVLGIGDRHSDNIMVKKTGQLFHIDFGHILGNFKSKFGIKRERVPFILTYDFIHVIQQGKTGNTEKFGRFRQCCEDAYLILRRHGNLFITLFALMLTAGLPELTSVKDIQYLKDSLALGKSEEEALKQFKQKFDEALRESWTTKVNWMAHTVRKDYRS
Chain of PI3K β (p110β/p85α)(h) (P27986 whole entry partner): as the sequence (P27986 whole entry partner) above
Chain of PI3Kγ (p120γ)(h) (P48736 whole entry): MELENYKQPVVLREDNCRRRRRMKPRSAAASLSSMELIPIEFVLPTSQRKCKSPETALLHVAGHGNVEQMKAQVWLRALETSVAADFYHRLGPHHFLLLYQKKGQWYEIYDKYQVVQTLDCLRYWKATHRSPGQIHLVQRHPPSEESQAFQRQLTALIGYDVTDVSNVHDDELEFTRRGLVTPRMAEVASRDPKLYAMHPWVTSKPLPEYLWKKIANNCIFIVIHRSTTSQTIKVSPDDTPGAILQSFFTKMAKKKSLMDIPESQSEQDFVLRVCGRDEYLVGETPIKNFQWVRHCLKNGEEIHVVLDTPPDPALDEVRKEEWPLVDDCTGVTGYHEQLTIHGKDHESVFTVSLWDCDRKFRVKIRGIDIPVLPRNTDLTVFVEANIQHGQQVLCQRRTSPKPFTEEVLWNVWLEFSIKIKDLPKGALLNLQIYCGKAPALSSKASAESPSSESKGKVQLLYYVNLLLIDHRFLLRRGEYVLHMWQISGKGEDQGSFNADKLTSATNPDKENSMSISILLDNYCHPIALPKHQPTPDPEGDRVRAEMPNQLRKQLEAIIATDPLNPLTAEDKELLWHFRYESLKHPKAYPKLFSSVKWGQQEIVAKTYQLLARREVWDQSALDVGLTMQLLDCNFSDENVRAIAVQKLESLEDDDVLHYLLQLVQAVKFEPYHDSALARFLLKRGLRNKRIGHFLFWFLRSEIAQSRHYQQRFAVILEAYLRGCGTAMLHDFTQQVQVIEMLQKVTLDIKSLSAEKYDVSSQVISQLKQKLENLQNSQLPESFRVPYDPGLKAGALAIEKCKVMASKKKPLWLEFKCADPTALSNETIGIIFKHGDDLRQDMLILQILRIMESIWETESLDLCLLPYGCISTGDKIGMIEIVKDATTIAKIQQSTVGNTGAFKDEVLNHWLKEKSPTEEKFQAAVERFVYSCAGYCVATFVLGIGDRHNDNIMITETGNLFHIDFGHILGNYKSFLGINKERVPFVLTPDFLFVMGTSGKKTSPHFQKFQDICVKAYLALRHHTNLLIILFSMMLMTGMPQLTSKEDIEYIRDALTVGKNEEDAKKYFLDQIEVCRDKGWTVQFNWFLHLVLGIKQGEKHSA
Chain of PI3Kδ (p110δ/p85α)(h) (O00329 whole entry): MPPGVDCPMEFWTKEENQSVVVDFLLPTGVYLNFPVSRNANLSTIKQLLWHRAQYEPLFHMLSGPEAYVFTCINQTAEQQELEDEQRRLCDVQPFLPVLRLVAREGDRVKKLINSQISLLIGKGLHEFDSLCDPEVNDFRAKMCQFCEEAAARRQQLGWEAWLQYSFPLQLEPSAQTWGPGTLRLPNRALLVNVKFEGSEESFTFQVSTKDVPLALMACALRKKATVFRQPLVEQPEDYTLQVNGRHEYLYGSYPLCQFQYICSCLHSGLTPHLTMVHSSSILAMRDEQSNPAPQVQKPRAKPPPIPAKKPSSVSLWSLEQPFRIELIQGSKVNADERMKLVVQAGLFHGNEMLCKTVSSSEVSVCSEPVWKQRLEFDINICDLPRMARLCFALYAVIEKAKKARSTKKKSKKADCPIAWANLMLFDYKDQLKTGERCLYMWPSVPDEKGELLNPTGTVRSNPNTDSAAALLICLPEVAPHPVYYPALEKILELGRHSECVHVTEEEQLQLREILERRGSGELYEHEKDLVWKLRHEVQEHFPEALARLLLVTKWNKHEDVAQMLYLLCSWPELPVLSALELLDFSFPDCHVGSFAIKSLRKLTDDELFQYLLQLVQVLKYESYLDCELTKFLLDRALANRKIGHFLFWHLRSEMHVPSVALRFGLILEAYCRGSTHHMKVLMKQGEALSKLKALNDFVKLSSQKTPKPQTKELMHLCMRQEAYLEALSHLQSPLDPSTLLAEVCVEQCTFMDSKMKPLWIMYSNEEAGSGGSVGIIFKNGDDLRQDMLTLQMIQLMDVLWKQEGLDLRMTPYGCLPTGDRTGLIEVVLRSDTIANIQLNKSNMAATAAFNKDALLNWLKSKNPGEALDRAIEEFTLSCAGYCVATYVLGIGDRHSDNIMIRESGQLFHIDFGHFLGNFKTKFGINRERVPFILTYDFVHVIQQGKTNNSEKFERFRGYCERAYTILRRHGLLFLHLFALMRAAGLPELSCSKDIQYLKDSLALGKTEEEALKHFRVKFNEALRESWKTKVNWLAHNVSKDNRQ
Chain of PI3Kδ (p110δ/p85α)(h) (P27986 whole entry partner): as the sequence (P27986 whole entry partner) above

Regarding `CN1CCN(Cc2ccc(-c3cncc4cc(/C=C5\SC(=O)NC5=O)oc34)cc2)CC1` [Example 134, (Z)-5-{(7-[4-{(4-Methylpiperazin-1-yl)methyl}phenyl]furo[3,2-c]pyridin-2-yl)methylene}thiazolidine-2,4-dione], the concentration for half-maximal inhibition (IC50) was 344 nM on PI3Kγ (p120γ)(h), 95 nM against PI3Kα (p110α/p85α)(h), above 1000 nM at PI3K β (p110β/p85α)(h) and 54 nM against PI3Kδ (p110δ/p85α)(h).

`COc1ccc(-c2cncc3cc(/C=C4\SC(=O)NC4=O)oc23)cc1C(F)(F)F` [Example 90, (Z)-5-([7-{4-Methoxy-3-(trifluoromethyl)phenyl}furo[3,2-c]pyridin-2-yl]methylene)thiazolidine-2,4-dione]: the IC50 stood at 5 nM against PI3Kγ (p120γ)(h), 3 nM on PI3Kα (p110α/p85α)(h), 3570 nM on PI3K β (p110β/p85α)(h) and 6250 nM against PI3Kδ (p110δ/p85α)(h).

As to `O=C1NC(=O)/C(=C/c2cc3cncc(-c4cccc(OCc5ccccc5)c4)c3o2)S1` [Example 6, (Z)-5-([7-{3-(Benzyloxy)phenyl}furo[3,2-c]pyridin-2-yl]methylene)thiazolidine-2,4-dione], the IC50 turned out to be 14 nM on PI3Kγ (p120γ)(h), 2 nM on PI3Kα (p110α/p85α)(h), 3 nM against PI3K β (p110β/p85α)(h) and 2350 nM against PI3Kδ (p110δ/p85α)(h).

With `Cn1cc(-c2cncc3cc(/C=C4\SC(=O)NC4=O)oc23)cn1` [Example 12, (Z)-5-[{7-(1-Methyl-1H-pyrazol-4-yl)furo[3,2-c]pyridin-2-yl}methylene]thiazolidine-2,4-dione], the concentration for half-maximal inhibition (IC50) at PI3Kγ (p120γ)(h) is 28 nM; on PI3Kα (p110α/p85α)(h), 7 nM; at PI3K β (p110β/p85α)(h) it was 572 nM; at PI3Kδ (p110δ/p85α)(h), above 10000 nM.

In the case of `COC(=O)c1ccc(C#Cc2cncc3cc(/C=C4\SC(=O)NC4=O)oc23)cc1` [Example 532, (Z)-Methyl 4-([2-{(2,4-dioxothiazolidin-5-ylidene)methyl}furo[3,2-c]pyridin-7-yl]ethynyl)benzoate], the IC50 on PI3Kγ (p120γ)(h) was found to be 33 nM; against PI3Kα (p110α/p85α)(h) it was 5 nM; on PI3K β (p110β/p85α)(h) it was 1390 nM; at PI3Kδ (p110δ/p85α)(h), 137 nM.

As for `O=C1NC(=S)S/C1=C\c1cc2cncc(-c3ccc(F)nc3)c2o1` [Example 153, (Z)-5-[{7-(6-Fluoropyridin-3-yl)furo[3,2-c]pyridin-2-yl}methylene]-2-thioxothiazolidin-4-one], the IC50 against PI3Kγ (p120γ)(h) amounted to 16 nM; at PI3Kα (p110α/p85α)(h) it was 10 nM; at PI3K β (p110β/p85α)(h), 115 nM; at PI3Kδ (p110δ/p85α)(h), 246 nM.

In the case of `O=C1NC(=O)/C(=C/c2cc3cncc(-c4ccc5c(c4)OCO5)c3o2)S1` [Example 36, (Z)-5-[{7-(Benzo[d][1,3]dioxol-5-yl)furo[3,2-c]pyridin-2-yl}methylene]thiazolidine-2,4-dione], the IC50 on PI3Kγ (p120γ)(h) is 154 nM; on PI3Kα (p110α/p85α)(h) it was 86 nM; against PI3K β (p110β/p85α)(h), 14 nM; on PI3Kδ (p110δ/p85α)(h), above 10000 nM.

Turning to `CC(C)c1ccccc1C#Cc1cncc2cc(/C=C3\SC(=S)NC3=O)oc12` [Example 554, (Z)-5-([7-{(2-Isopropylphenyl)ethynyl}furo[3,2-c]pyridin-2-yl]methylene)-2-thioxothiazolidin-4-one], the IC50 against PI3Kγ (p120γ)(h) is 78 nM; against PI3Kα (p110α/p85α)(h), 67 nM; at PI3K β (p110β/p85α)(h), 8620 nM; at PI3Kδ (p110δ/p85α)(h), above 10000 nM.

Take `CN(C)S(=O)(=O)c1ccc(-c2cncc3cc(/C=C4\SC(=S)NC4=O)oc23)cc1OC(F)(F)F` [Example 339, (Z)—N,N-Dimethyl-4-[2-{(4-oxo-2-thioxothiazolidin-5-ylidene)methyl}furo[3,2-c]pyridin-7-yl]-2-(trifluoromethoxy)benzenesulfonamide]: the IC50 on PI3Kγ (p120γ)(h) is 16 nM; against PI3Kα (p110α/p85α)(h), 8 nM; on PI3K β (p110β/p85α)(h), 443 nM; on PI3Kδ (p110δ/p85α)(h), 188 nM.

Turning to `O=C1NC(=O)/C(=C/c2cc3cncc(C#Cc4ccc(Cl)cc4)c3o2)S1` [Example 541, (Z)-5-([7-{(4-Chlorophenyl)ethynyl}furo[3,2-c]pyridin-2-yl]methylene)thiazolidine-2,4-dione], the IC50 against PI3Kγ (p120γ)(h) was 27 nM; at PI3Kα (p110α/p85α)(h) it was 5 nM; against PI3K β (p110β/p85α)(h), 104 nM; against PI3Kδ (p110δ/p85α)(h), 136 nM.

For the compound `CN(C)S(=O)(=O)c1ccc(-c2cncc3cc(/C=C4\SC(=S)NC4=O)oc23)cc1F` [Example 330, (Z)-2-Fluoro-N,N-dimethyl-4-[2-{(4-oxo-2-thioxothiazolidin-5-ylidene)methyl}furo[3,2-c]pyridin-7-yl]benzenesulfonamide], the IC50 at PI3Kγ (p120γ)(h) is 12 nM; against PI3Kα (p110α/p85α)(h), 24 nM; against PI3K β (p110β/p85α)(h), above 10000 nM; at PI3Kδ (p110δ/p85α)(h), above 10000 nM.

With `CCOc1ccc(-c2cncc3cc(/C=C4\SC(=O)NC4=O)oc23)cc1C(F)(F)F` [Example 94, (Z)-5-([7-{4-Ethoxy-3-(trifluoromethyl)phenyl}furo[3,2-c]pyridin-2-yl]methylene)thiazolidine-2,4-dione], the half-maximal inhibitory concentration (IC50) at PI3Kγ (p120γ)(h) is 8 nM; on PI3Kα (p110α/p85α)(h) it was 6 nM; against PI3K β (p110β/p85α)(h), above 10000 nM; at PI3Kδ (p110δ/p85α)(h) it was above 10000 nM.

As for `Cc1cc(-c2cncc3cc(/C=C4\SC(=S)NC4=O)oc23)cc(C)c1OC(C)C` [Example 197, (Z)-5-[{7-(4-Isopropoxy-3,5-dimethylphenyl)furo[3,2-c]pyridin-2-yl}methylene]-2-thioxothiazolidin-4-one], the IC50 on PI3Kγ (p120γ)(h) is 5 nM; against PI3Kα (p110α/p85α)(h) it was 121 nM; at PI3K β (p110β/p85α)(h), above 10000 nM; against PI3Kδ (p110δ/p85α)(h), above 10000 nM.
